# According to patent US20090076140A1, “PHARMACEUTICAL COMPOSITIONS CONTAINING SULPHONIC ACID DERIVATIVES” (ITALFARMACO, S. A., priority 2003, published 2009):
# Entries after “also recorded” stand apart in the source; their conditions may differ. Like-named read-outs stand apart in the source and are kept apart here.
# Assays:
# [1] = test system: quiescent fibroblasts (Balb/c 3T3); assay: toxicity analysis for quiescent fibroblasts (culture in the absence of aFGF); format: cell-based; conditions: for toxicity for quiescent fibroblasts: within the concentration range tested / in which aFGF mitogenic activity is inhibited
# aFGF [2] = molecular target: T1, aFGF (Homo sapiens, UniProt P05230); assay: aFGF-induced mitogenesis inhibition test on fibroblasts in culture; format: cell-based; parameters: the aFGF of 139 amino acid residues; conditions: for aFGF-induced mitogenic activity inhibition (in words): Balb/c 3T3 fibroblasts, 60 hours, MIHS 20 μg/mL, aFGF 0.32 ng/mL; for aFGF-induced mitogenic inhibitory activity compared between compounds (stereochemical guidelines): C-9 and C-17 vs. C-14 and C-18, C-10, C-11, C-13 vs. C-9, 2-NMS vs 1-NMS series
# [3] = test system: quiescent fibroblasts (Balb/c 3T3); conditions: Lozano et al. (1998), cited from earlier work
# aFGF [4] = molecular target: T1, aFGF; parameters: the aFGF of 139 amino acid residues; conditions: Lozano et al. (1998), cited from earlier work
# [5] = listed as sodium 5-acetylamino-2-naphthalenesulfonate
# [6] = listed as sodium 4-hydroxy-6-amino-2-naphthalenesulfonate
# T1 sequence (P05230 16-155 limits assumed): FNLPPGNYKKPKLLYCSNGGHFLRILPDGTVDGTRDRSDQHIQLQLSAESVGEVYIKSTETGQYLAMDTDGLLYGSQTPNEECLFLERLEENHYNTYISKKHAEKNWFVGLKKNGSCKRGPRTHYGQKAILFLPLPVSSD
Compound,aFGF-induced mitogenic activity inhibition (in words) (aFGF [2]),toxicity for quiescent fibroblasts [1],also measured
"NCc1ccc(S(=O)(=O)[O-])cc1.[Na+] [Compound C-21, sodium 4-(aminomethyl)benzenesulfonate]",–,–,mitogenesis inductor / tumorigenic effect on quiescent fibroblasts in the absence of aFGF [1]: certain tumorigenic effect
"O=C(Nc1cccc2cc(S(=O)(=O)[O-])ccc12)c1ccccc1.[Na+] [Compound C-11, sodium 5-benzoylamino-2-naphthalenesulfonate]",aFGF-induced mitogenic activity inhibitors,–,aFGF-induced mitogenic inhibitory activity compared between compounds (stereochemical guidelines) (aFGF [2]): significant reduction
"CC(=O)Nc1ccc2c(O)cc(S(=O)(=O)[O-])cc2c1.[Na+] [Compound C-19, sodium 7-acetylamino-4-hydroxy-2-naphthalenesulfonate]",–,–,mitogenesis inductor / tumorigenic effect on quiescent fibroblasts in the absence of aFGF [1]: certain tumorigenic effect
O=C(CCCCC(=O)Nc1cccc2cc(S(=O)(=O)O)ccc12)Nc1cccc2cc(S(=O)(=O)[O-])ccc12.[Na+] [Compound C-13],effective aFGF-induced mitogenesis activity inhibitors,–,aFGF-induced mitogenic inhibitory activity compared between compounds (stereochemical guidelines) (aFGF [2]): significant reduction; mitogenesis inductor / tumorigenic effect on quiescent fibroblasts in the absence of aFGF [1]: high mitogenesis inductor activity
"O=S(=O)(O)c1ccc2ccccc2c1 [Compound C-8, 2-naphthalenesulfonic acid]",inhibits aFGF-induced mitogenic activity at lower concentrations than compound C-1,toxic,aFGF-induced mitogenic activity inhibition (in words) (aFGF [2]; listed as 2-NMS): inhibits aFGF-induced mitogenic activity
"O=C(Nc1ccc(S(=O)(=O)[O-])c2ccccc12)c1ccccc1.[Na+] [Compound C-5, sodium 4-benzoylamino-1-naphthalenesulfonate]",low aFGF-induced mitogenesis inhibitory activity,not toxic,–
"CC(=O)Nc1cccc2cc(S(=O)(=O)[O-])ccc12.[Na+] [Compound C-10, sodium 5-acetylamino-2-naphthalenesulfonate]",slightly less than that of C-9,innocuous,"aFGF-induced mitogenic activity inhibition (in words) (aFGF [2]; [5]): potent aFGF-induced mitogenic activity inhibitors; aFGF-induced mitogenic inhibitory activity compared between compounds (stereochemical guidelines) (aFGF [2]): does not substantially alter the inhibitory activity; toxicity for quiescent fibroblasts [1, 5]: not toxic"
"Nc1ccc(S(=O)(=O)[O-])cc1.[Na+] [Compound C-20, sodium 4-aminobenzenesulfonate]",little aFGF-induced mitogenesis inhibitory activity,innocuous,–
"O=S(=O)([O-])c1cccc2cccnc12.[Na+] [Compound C-24, sodium 8-quinolinesulfonate]",little aFGF-induced mitogenesis inhibitory activity,innocuous,–
"O=C(Nc1cccc2ccc(S(=O)(=O)[O-])cc12)c1ccccc1.[Na+] [Compound C-16, sodium 8-benzoylamino-2-naphthalenesulfonate]",aFGF-induced mitogenic activity inhibitors,innocuous,–
"O=S(=O)([O-])c1ccc2ncccc2c1.[Na+] [Compound C-23, sodium 6-quinolinesulfonate]",potent aFGF-induced mitogenic activity inhibitor,toxic effect,–
"Nc1ccc2c(O)cc(S(=O)(=O)[O-])cc2c1.[Na+] [Compound C-18, sodium 7-amino-4-hydroxy-2-naphthalenesulfonate]",aFGF-induced mitogenic activity inhibitors,–,–
"Nc1c(O)cc(S(=O)(=O)[O-])c2ccccc12.[Na+] [Compound C-7, sodium 4-amino-3-hydroxy-1-naphthalenesulfonate]",aFGF-induced mitogenic activity inhibitors; also recorded: best aFGF-induced mitogenic activity inhibitory activity,certain toxic effect,IC50 rank among the tested compounds (aFGF [2]; aFGF-induced mitogenesis): lowest IC50; proliferation of quiescent fibroblasts cultured in the absence of aFGF ([1]; at concentrations exceeding 0.2 mM): significantly increases
"CC(=O)Nc1ccc(S(=O)(=O)[O-])c2ccccc12.[Na+] [Compound C-4, sodium 4-acetylamino-1-naphthalenesulfonate]",aFGF-induced mitogenic activity inhibitors,certain toxic effect,–
"CN(C)Cc1cc2cc(S(=O)(=O)O)ccc2[nH]1 [Compound C-25, 2-[(dimethylamino)methyl]-1H-indole-5-sulfonic acid]",–,–,mitogenesis inductor / tumorigenic effect on quiescent fibroblasts in the absence of aFGF [1]: certain tumorigenic effect
"O=C(O)c1ccccc1C(=O)Nc1cccc2cc(S(=O)(=O)O)ccc12.[Na] [Compound C-12, sodium 2-{[(6-sulfo-1-naphthyl)amino]carbonyl}benzoic acid]",effective aFGF-induced mitogenesis activity inhibitors,–,mitogenesis inductor / tumorigenic effect on quiescent fibroblasts in the absence of aFGF [1]: high mitogenesis inductor activity
"CC(=O)Nc1cccc2ccc(S(=O)(=O)[O-])cc12.[Na+] [Compound C-15, sodium 8-acetylamino-2-naphthalenesulfonate]",aFGF-induced mitogenic activity inhibitors,innocuous,–
"Nc1ccc2cc(S(=O)(=O)[O-])cc(O)c2c1.[Na+] [Compound C-17, sodium 6-amino-4-hydroxy-2-naphthalenesulfonate]",slightly less than that of C-9,innocuous,"aFGF-induced mitogenic activity inhibition (in words) (aFGF [2]; [6]): potent aFGF-induced mitogenic activity inhibitors; aFGF-induced mitogenic inhibitory activity compared between compounds (stereochemical guidelines) (aFGF [2]): better aFGF-induced mitogenic activity inhibitors; toxicity for quiescent fibroblasts [1, 6]: not toxic"
"O=S(=O)(O)c1cccc2ccccc12 [Compound C-1, 1-naphthalenesulfonic acid]",aFGF-induced mitogenic activity inhibitors,certain toxic effect,"toxicity at concentrations at which aFGF mitogenic activity is inhibited (literature) ([3]; listed as 1-NMS): clear toxicity; also recorded: toxic; aFGF-induced mitogenic activity inhibition (literature) (aFGF [4]; listed as 1-NMS): better aFGF mitogenic activity inhibitors than NTS; also recorded: aFGF-induced mitogenic activity inhibitors; also recorded: more potent inhibitor than 1,3,6-NTS and 1,5-NDS"
"O=S(=O)(O)c1cccc2c(S(=O)(=O)O)cccc12 [1,5-NDS, 1,5-naphthalenedisulfonic acid, reference compound]",–,–,toxicity at concentrations at which aFGF mitogenic activity is inhibited (literature) [3]: clear toxicity; also recorded: toxic; aFGF-induced mitogenic activity inhibition (literature) (aFGF [4]): better aFGF mitogenic activity inhibitors than NTS; also recorded: aFGF-induced mitogenic activity inhibitors
"Cc1ccc2ccccc2c1S(=O)(=O)[O-].[Na+] [Compound C-2, sodium 2-methyl-1-naphthalenesulfonate]",aFGF-induced mitogenic activity inhibitors,certain toxic effect,–
"Nc1cccc2ccc(S(=O)(=O)[O-])cc12.[Na+] [Compound C-14, sodium 8-amino-2-naphthalenesulfonate]",aFGF-induced mitogenic activity inhibitors,certain toxic effect,–
"Nc1ccc(S(=O)(=O)[O-])c2ccccc12.[Na+] [Compound C-3, sodium 4-amino-1-naphthalenesulfonate]",low aFGF-induced mitogenesis inhibitory activity,not toxic,–
"CN(C)c1cccc2c(S(=O)(=O)[O-])cccc12.[Na+] [Compound C-6, sodium 5-dimethylamino-1-naphthalenesulfonate]",aFGF-induced mitogenic activity inhibitors,certain toxic effect,–
